Experimental data: patent US10793575B2, “Oxoisoquinoline derivatives” (CARNA BIOSCIENCES, INC., priority 2016, dated 2020)

What was measured:
[1] = molecular target: dephosphorylated BTK (Homo sapiens (Human), UniProt Q06187); assay: BTK Activity Inhibition Test (mobility shift assay); type: biochemical; details: 200 μM ATP, read-out: Inhibitory Activity on BTK
Summary of the method: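 Biotinylated human BTK was dephosphorylated with λ phosphatase and assayed by mobility shift, with FITC-SRCtide as substrate in 20 mM HEPES pH 7.5, 0.01% Triton X-100 and 2 mM DTT. The substrate mix held 4 μM substrate, 20 mM MgCl2 and 200 μM ATP, and the enzyme solution held 0.46 nM BTK (stock levels, not final). After 2 h at room temperature, % inhibition was derived from P/(P+S) and IC50 by log-concentration regression.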

[2] = molecular target: C481S mutant BTK [BTK(C481S)] (Homo sapiens (Human), UniProt Q06187, C481S); assay: C481S Mutant BTK Inhibitory Activity Test (mobility shift assay); type: biochemical; details: for IC50: C481S mutant BTK, 100 μM ATP; for C481S mutation-resistance: IC50[BTK(C481S)]/IC50[BTK(WT)]
[3] = molecular target: BTK (Homo sapiens (Human), UniProt Q06187); assay: Intracellular BTK Auto-Phosphorylation Activity Inhibition Test in Ramos cells; type: cell-based; details: test compound 0.03 μM, anti-IgM stimulation, pY223, read-out: Inhibitory Activity on BTK-phosphorization
Protocol: Ramos cells (2G6.4C10, ATCC No. CRL-1923) were cultured in a T75 flask containing RPMI-1640 medium (GIBCO, # A10491-01) supplemented with 10% FBS (AusGene) and 1% penicillin-streptomycin (Nacalai Tesque, Inc.) (hereinafter referred to as growth medium) in a 5% CO2 incubator.
The cultured Ramos cells were diluted to a cell density of 7.5×10^6 cells/mL with a serum-free RPMI-1640 (hereinafter referred to as medium) and kept at 37° C. for 45 minutes. The cell suspension was dispensed in 1 mL aliquots into 2.0 mL tubes. A 0.03 mM solution of the test substance in DMSO was diluted with the medium to make a 0.09 μM test compound solution, 500 μL of which was then added to the tubes and the incubation was conducted at 37° C. for 1 hour in the presence of the test compound at a final concentration of 0.03 μM. Thereafter, the anti-IgM antibody (Invitrogen, H15100) which had been diluted with the medium was added at a final concentration of 10 μg/mL, and the incubation was conducted at 37° C. for 10 minutes.
To the pellets obtained by recovering the cells via centrifugation, 100 μL of a lysis buffer [RIPA Buffer(×1)(Cell Signaling Technology, Inc.) supplemented with 1% Phosphatase inhibitor Cacktail 3 (Sigma Corporation, No. P0044), 1% Phosphatase inhibitor Cacktail (Nacalai Tesque, Inc., No. 07575) and 1 mM phenylmethylsulfonyl fluoride (PMSF)] was added and stirred gently and then allowed to stand for 10 minutes. The supernatant was recovered by centrifugation (15,000 rpm, 15 minutes) and the protein level was quantified. The portion was mixed with the SDS-sample buffer, allowed to react for 5 minutes at 95° C. to denature the protein, thereby obtaining a sample solution. Each 5 μL of the sample solutions was applied to each well containing a 5 to 20% gradient acrylamide gel (Nacalai Tesque, Inc., No. 13064-04) and electrophoresis was conducted. Thereafter, iBlot gel transfer system (Life Technologies Corporation) was used to transfer the proteins in the gel onto a PVDF membrane.
The PVDF membrane after transfer was blocked with 2% ECL prime blocking Reagent (GE Healthcare) and thereafter the reaction was conducted overnight at 4° C. using anti-BTK mouse antibody (BD transduction laboratory, No. 611116) or anti-phosphorylated BTK rabbit antibody (pY223, EPITOMICS, No. 2207-1) as a primary antibody. The unreacted primary antibody was washed with a TBST buffer (10 mM Tris-HCl (pH 7.5), 150 mM NaCl, 0.1% Tween 20) and then the reaction was conducted for 1 hour at room temperature in a TBST buffer supplemented with 2% ECL prime blocking Reagent using HRP-labeled anti-mouse IgG horse antibody (Cell Signaling Technology, No. 7076) or anti-rabbit IgG goat antibody (Cell Signaling Technology, No. 7074) as a secondary antibody. After washing the unreacted secondary antibody with the TBST buffer, Chemi-Lumi One Super (Nacalai Tesque, Inc.) was used to conduct a reaction in accordance with the attached protocol, and then the respective bands as chemiluminescences were detected with a CCD camera (GE Healthcare ImageQuant LAS 500). […] Each phosphorylated BTK band was corrected based on the total BTK.
The intracellular BTK autophosphorylation inhibiting activity was indicated with the mark “***” when 90% or more, with the mark “**” when 70% or more and less than 90%, and with the mark “*” when 50% or more and less than 70%.

[4] = molecular target: wild type BTK [BTK(WT)] (Homo sapiens (Human), UniProt Q06187); assay: C481S Mutant BTK Inhibitory Activity Test, wild type BTK (mobility shift assay); type: biochemical; details: 120 μM ATP
[5] = tested on: OCI-Ly10 cells; assay: Proliferation-Inhibitory Test Against Diffuse Large-Cell B-Cell Lymphoma OCI-Ly10 Strain; type: cell-based; details: Homo sapiens, 96 hours, alamarBlue
Summary of the method: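 In IMDM with 20% FBS, OCI-Ly10 cells (20000 cells/well) were exposed to compound at 0.9 nM to 30000 nM (0.3% DMSO final) for 96 hours. Viability was then read with alamarBlue reagent.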

Sequence of C481S mutant BTK [BTK(C481S)] (Q06187 whole entry C481S): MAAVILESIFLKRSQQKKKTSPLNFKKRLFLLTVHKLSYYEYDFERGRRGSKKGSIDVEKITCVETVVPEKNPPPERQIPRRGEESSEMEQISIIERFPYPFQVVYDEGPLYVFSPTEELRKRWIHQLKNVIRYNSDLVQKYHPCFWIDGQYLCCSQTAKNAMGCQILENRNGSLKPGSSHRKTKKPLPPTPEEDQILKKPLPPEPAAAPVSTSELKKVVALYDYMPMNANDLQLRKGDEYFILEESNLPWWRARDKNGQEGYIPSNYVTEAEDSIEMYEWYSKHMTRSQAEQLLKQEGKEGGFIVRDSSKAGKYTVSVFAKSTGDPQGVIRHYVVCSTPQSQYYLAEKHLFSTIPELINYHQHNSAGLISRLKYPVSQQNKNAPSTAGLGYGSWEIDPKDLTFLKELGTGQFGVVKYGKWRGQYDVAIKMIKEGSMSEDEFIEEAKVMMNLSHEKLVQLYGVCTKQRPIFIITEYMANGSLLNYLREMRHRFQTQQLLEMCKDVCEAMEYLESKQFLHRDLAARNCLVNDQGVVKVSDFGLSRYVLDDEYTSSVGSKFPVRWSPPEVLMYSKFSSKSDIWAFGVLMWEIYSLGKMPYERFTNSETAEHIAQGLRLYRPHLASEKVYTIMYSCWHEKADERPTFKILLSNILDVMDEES
Sequence of wild type BTK [BTK(WT)] (Q06187 whole entry): as the sequence (Q06187 whole entry C481S) above, with S481C counted along it
Sequence of BTK (Q06187 whole entry): as the sequence (Q06187 whole entry C481S) above, with S481C counted along it
Sequence of dephosphorylated BTK (Q06187 whole entry): as the sequence (Q06187 whole entry C481S) above, with S481C counted along it

| IC50 [1] | IC50 [2] | C481S mutation-resistance [2] | inhibition at 0.03 µM [3] | IC50 [4] | IC50 [5] | Compound |
| --- | --- | --- | --- | --- | --- | --- |
| < 10 nM | 0.6 nM | 1.2 | ≥ 90% | 0.49 nM | 27 nM | Cn1cc(-c2cc3c(-c4cccc(-n5ccc6cc(C7CC7)cc(F)c6c5=O)c4CO)nc(N)nc3[nH]2)cn1 [Example 13, 2-{3-[2-amino-6-(1-methyl-1H-pyrazol-4-yl)-7H-pyrrolo[2,3-d]pyrimidin-4-yl]-2-(hydroxymethyl)phenyl}-6-cyclopropyl-8-fluoroisoquinolin-1(2H)-one] |
| < 10 nM | 0.99 nM | 2.2 | ≥ 90% | 0.46 nM | 20 nM | Nc1nc(-c2cccc(-n3ccc4cc(C5CC5)cc(F)c4c3=O)c2CO)c2cc(C3=CCN(C4COC4)CC3)[nH]c2n1 [Example 23, 2-(3-{2-amino-6-[1-(oxetan-3-yl)-1,2,3,6-tetrahydropyridin-4-yl]-7H-pyrrolo[2,3-d]pyrimidin-4-yl}-2-(hydroxymethyl)phenyl)-6-cyclopropyl-8-fluoroisoquinolin-1(2H)-one] |
